The results in this text go back to patent US6723702B2, “Use of relaxin treat diseases related to vasoconstriction” (RAS Medical, Inc., priority 2000, dated 2004).

The subject of one assay is human cardiac cells. As to the kind of experiment: Cellular proliferation by 3H-thymidine incorporation in cardiac cells. The format is cell-based. Here is the method: To determine if the effects of relaxin observed in the rat were also seen in human cells, total RNA from cardiac cells was extracted following treatment of cells with 1, 10, and 100 ng/ml relaxin for 24 hours. Human cardiac cells were cultured for 24 hours either without or with relaxin (1-100 ng/ml). Untreated cells were incubated for the same 24 hour period under hypoxic (2% O2) conditions. Using 150 ng of total RNA for human VEGF and bFGF transcripts and 10 ng of total RNA for GAPDH transcripts, primer/probe sets were used to generate RT-PCR products for human VEGF 165aa and 121aa isoforns and human bFGF. Data were analyzed using Sequence Detector v1.6.3 software (Applied Biosystems/PE). VEGF and bFGF expression levels are graphed relative to GAPDH transcript levels. Data are shown as means±SEM, where n=3 per treatment group; *p<0.05; Student-Newman-Keuls test. […] Absolute baseline levels of bFGF mRNA transcripts expressed by these cells were approximately 2-fold greater than those of either the VEGF121 or the VEGF165 isoforms. Total RNA from cells incubated under hypoxic conditions was analyzed as a positive control for the stimulation of VEGF isoforms. […] Relaxin had no effect on cellular proliferation, as assessed by ^3H-thymidine incorporation, on cellular morphology, or on desmin or vimentin staining patterns.

The subject of a further assay is human subjects. As to the kind of experiment: Clinical trial: blood pressure and creatinine clearance. The class given is in vivo. How it is done: A clinical trial was conducted with human subjects, age 18 to 70 years. Subjects were treated with either 10 μg relaxin/kg body weight/day (minimum of 36 subjects), 25 μg relaxin/kg body weight/day (minimum of 72 subjects), or placebo (minimum of 72 subjects) for 24 weeks. Administration was by continuous subcutaneous infusion, using a pump. The relaxin was recombinant human relaxin (rhRlx). At various time points, diastolic blood pressure, systolic blood pressure, and creatinine clearance (as a measure of renal function) were measured. Creatinine clearance was calculated using the following formulas:
Creatinine clearance=((140−age)×weight (kg)/72×serum creatinine (mg/dL))×0.85
Creatinine clearance=(140−age)×weight (kg)/72×serum creatinine (mg/dL)
The change in each measured parameter was calculated (value at week x-week 0 value). […] The threshold for obtaining this effect was greater than 10 μg rhRLXN/kg/day. […] This latter result indicates an increase in blood flow.

As to “rhRLX: recombinant human relaxin, identical in amino acid sequence to the product of the human H2 gene; A chain of 24, B chain of 29 amino acids”, the “cellular proliferation, 3H-thymidine incorporation” value in the assay on human cardiac cells was “no effect”. Further, the “renal function, as measured by creatinine clearance” value in the assay on human subjects (10 μg rhRLXN/kg/day (FIG. 12)) and with human subjects (25 μg rhRLXN/kg/day (FIG. 13)) was “improvement” in each case. Moreover, the diastolic pressure result in the assay with human subjects (25 μg/kg/day s.c. infusion, about week 2 through week 24 (FIG. 10)) was “reduced”. Moreover, the systolic pressure result in the assay on human subjects (25 μg/kg/day s.c. infusion, about week 2 through week 24 (FIG. 11)) is “reduced”. The “threshold for reducing diastolic and systolic pressure” value in the assay with human subjects (human, in vivo) is recorded as “greater than 10 μg rhRLXN/kg/day”.
